Read-outs that look alike come from different tables or passages of the source. Values belong to the compound of their own block, whether it stands above or below them. Where a SMILES comes first, the peptide text is derived from it. Bridges are numbered along the chain shown (N, C = ends). Side-chain parts run from the residue outwards. [ ]: non-standard residue; d: D form. The star is where a group is joined. X1 = O=C(O)CN1CCN(CC(=O)O)CCN(CC(=O)N[C@@H](CS(=O)(=O)O)C(=O)N[C@@H](CCCCNC(=O)CCCc2ccc(I)cc2)C(=O)*)CCN(CC(=O)O)CC1; X6 = COc1ccc(CCCC(=O)NCCCC[C@H](NC(=O)[C@H](CS(=O)(=O)O)NC(=O)CN2CCN(CC(=O)O)CCN(CC(=O)O)CCN(CC(=O)O)CC2)C(=O)*)cc1; X7 = COc1ccc(CCCC(=O)NCCCC[C@H](NC(=O)CN2CCN(CC(=O)O)CCN(CC(=O)O)CCN(CC(=O)O)CC2)C(=O)*)cc1; DOTA = O=C(O)CN1CCN(CC(=O)O)CCN(CC(=O)*)CCN(CC(=O)O)CC1; Butanoyl(4-(4-MeO-phenyl)) = COc1ccc(CCCC(=O)*)cc1; 2Nal = N[C@@H](Cc1ccc2ccccc2c1)C(=O)O; Lys(iPr) = CC(C)NCCCC[C@H](N)C(=O)O; Cya = N[C@@H](CS(=O)(=O)O)C(=O)O
Assays:
[1] = tested on: non-Hodgkin lymphoma, renal cell carcinoma, lung cancer, colorectal cancer, and breast cancer xenograft models; conditions: reported; cited from earlier work
CXCR4 [2] = biological target: T1, CXCR4 (Homo sapiens, UniProt P61073); conditions: reported; read-out: IC50, block of SDF-1a binding to CXCR4; cited from earlier work
Target sequence in this assay (P61073 whole entry, species assumed): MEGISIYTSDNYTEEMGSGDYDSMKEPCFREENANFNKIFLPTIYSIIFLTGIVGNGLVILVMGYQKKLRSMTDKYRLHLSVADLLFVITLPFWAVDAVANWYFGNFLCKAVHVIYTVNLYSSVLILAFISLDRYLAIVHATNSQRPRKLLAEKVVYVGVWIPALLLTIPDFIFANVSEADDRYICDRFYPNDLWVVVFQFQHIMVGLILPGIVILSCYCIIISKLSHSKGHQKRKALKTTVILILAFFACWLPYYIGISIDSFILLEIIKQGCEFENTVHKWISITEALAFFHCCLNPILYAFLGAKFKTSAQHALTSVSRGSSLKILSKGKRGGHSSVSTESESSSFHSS

[3] = tested on: small cell lung cancer patients; conditions: reported; cited from earlier work
CXCR4 [4] = biological target: T1, CXCR4; assay: Competitive binding assay, [125I]SDF-1α displacement on CHO:CXCR4 cells; set-up: expressed in transfected cells; host or cells: CHO:CXCR4 cells; conditions: [125I]SDF-1α 0.01 nM, 1 h at 27° C., read-out: IC50 (nM), binding affinity for hCXCR4
Experimental: CHO:CXCR4 cells were seeded at a density of 1×10^5 cells/well in 24-well poly-D-lysine coated plates (Corning BioCoat) and incubated with [^125I]SDF-1α (0.01 nM, PerkinElmer) and competing nonradioactive ligands ([…]). The cells, radioligand, and competing peptides were incubated for 1 h at 27° C. with moderate shaking. Following the incubation period, the supernatant was aspirated, followed by three washes with 1 mL of ice-cold PBS. Cells were harvested with 200 μL of trypsin and counted on a y counter. Data were plotted in GraphPad Prism 7 to determine IC50 values (GraphPad Software, Inc., La Jolla, CA). The values are reported as mean±standard deviation.
Target sequence in this assay (P61073 whole entry): as the sequence (P61073 whole entry, species assumed) above

Z138 tumor-bearing mice = assay: in vivo; conditions: male, NOD.Cg-Rag1tm1Mom Il2rgtm1Wjl/SzJ (NRG), mouse, iv
How it was run: (§1)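 Male NRG mice bearing subcutaneous Z138 mantle cell lymphoma xenografts (5×10^6 cells, grown to 200-300 mm^3) injected intravenously under isoflurane with 68Ga-labelled tracers. Harvested tissues weighed and gamma-counted; uptake expressed as % ID/g.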

in vivo = assay: in vivo; set-up: species or system mice; conditions: male, NOD.Cg-Rag1tm1Mom Il2rgtm1Wjl/SzJ (NRG), mouse, iv, total radioactivity
How it was run: as §1

Compound: cyclo[Phe-Tyr-Lys(iPr)-D-Arg-2-Nal-Gly-D-Glu]-Lys(iPr)-NH2 [LY2510924]
inhibition of growth of xenograft models [1]: able to inhibit growth | IC50 (CXCR4 [2]): 0.079 nM | treatment efficacy with carboplatin/etoposide chemotherapy [3]: failed to improve treatment efficacy

Compound: COc1ccc(CCCC(=O)NCCCC[C@H](NC(=O)CN2CCN(CC(=O)O)CCN(CC(=O)O)CCN(CC(=O)O)CC2)C(=O)N[C@@H](CS(=O)(=O)O)C(=O)NCCCC[C@@H]2NC(=O)CC[C@H](C(=O)N[C@@H](CCCCNC(C)C)C(N)=O)NC(=O)[C@@H](C)NC(=O)[C@H](Cc3ccc4ccccc4c3)NC(=O)[C@@H](CCCNC(=N)N)NC(=O)[C@H](CCCCNC(C)C)NC(=O)[C@H](Cc3ccc(O)cc3)NC2=O)cc1 [BL34L6] (K([Cya-X7])Y[Lys(iPr)][dR][2Nal][dA][dE][Lys(iPr)]-NH2; lactam N-7)
IC50 (CXCR4 [4]): 10 to 50 nM

Continued, values first:

IC50 (CXCR4 [4]): > 100 nM
Compound: COc1ccc(CCCC(=O)NCCCC[C@H](NC(=O)[C@H](CCCCNC(C)C)NC(=O)[C@H]2CCC(=O)N[C@@H](CCCCNC(=O)[C@H](CS(=O)(=O)O)NC(=O)CN3CCN(CC(=O)O)CCN(CC(=O)O)CCN(CC(=O)O)CC3)C(=O)N[C@@H](Cc3ccc(O)cc3)C(=O)N[C@@H](CCCCNC(C)C)C(=O)N[C@H](CCCNC(=N)N)C(=O)N[C@@H](Cc3ccc4ccccc4c3)C(=O)N[C@H](C)C(=O)N2)C(N)=O)cc1 [BL34L8] (K([Cya-DOTA])Y[Lys(iPr)][dR][2Nal][dA][dE][Lys(iPr)]K(Butanoyl(4-(4-MeO-phenyl)))-NH2; lactam N-7)

Biodistribution: Adrenals (Z138 tumor-bearing mice; 1 h): 3.76 % ID/g | Biodistribution: Blood (Z138 tumor-bearing mice; 1 h): 18.59 % ID/g | Biodistribution: Bone (Z138 tumor-bearing mice; 1 h): 1.16 % ID/g | Biodistribution: Brain (Z138 tumor-bearing mice; 1 h): 0.29 % ID/g | Biodistribution: Heart (Z138 tumor-bearing mice; 1 h): 4.23 % ID/g | Biodistribution: Kidneys (Z138 tumor-bearing mice; 1 h): 5.23 % ID/g | Biodistribution: Liver (Z138 tumor-bearing mice; 1 h): 3.14 % ID/g | Biodistribution: Lungs (Z138 tumor-bearing mice; 1 h): 14.83 % ID/g | Biodistribution: Muscle (Z138 tumor-bearing mice; 1 h): 1.20 % ID/g | Biodistribution: Pancreas (Z138 tumor-bearing mice; 1 h): 1.80 % ID/g | Biodistribution: Small Intestine (Z138 tumor-bearing mice; 1 h): 1.56 % ID/g | Biodistribution: Spleen (Z138 tumor-bearing mice; 1 h): 1.56 % ID/g | Biodistribution: Stomach (Z138 tumor-bearing mice; 1 h): 0.61 % ID/g | Biodistribution: Testes (Z138 tumor-bearing mice; 1 h): 2.49 % ID/g | Biodistribution: Z138 Tumor (Z138 tumor-bearing mice; 1 h): 4.09 % ID/g | Ratio Tumor-to-Blood (Z138 tumor-bearing mice; 1 h): 0.22 | Ratio Tumor-to-Bone (Z138 tumor-bearing mice; 1 h): 2.39 | Ratio Tumor-to-Kidney (Z138 tumor-bearing mice; 1 h): 0.78 | Ratio Tumor-to-Muscle (Z138 tumor-bearing mice; 1 h): 3.35 | Ratio Tumor-to-Pancreas (Z138 tumor-bearing mice; 1 h): 2.31 | Biodistribution: Adrenals (Z138 tumor-bearing mice; 3 h): 3.12 % ID/g | Biodistribution: Blood (Z138 tumor-bearing mice; 3 h): 14.23 % ID/g | Biodistribution: Bone (Z138 tumor-bearing mice; 3 h): 0.97 % ID/g | Biodistribution: Brain (Z138 tumor-bearing mice; 3 h): 0.22 % ID/g | Biodistribution: Heart (Z138 tumor-bearing mice; 3 h): 3.34 % ID/g | Biodistribution: Kidneys (Z138 tumor-bearing mice; 3 h): 3.92 % ID/g | Biodistribution: Liver (Z138 tumor-bearing mice; 3 h): 3.18 % ID/g | Biodistribution: Lungs (Z138 tumor-bearing mice; 3 h): 7.95 % ID/g | Biodistribution: Muscle (Z138 tumor-bearing mice; 3 h): 1.25 % ID/g | Biodistribution: Pancreas (Z138 tumor-bearing mice; 3 h): 1.54 % ID/g | Biodistribution: Small Intestine (Z138 tumor-bearing mice; 3 h): 1.35 % ID/g | Biodistribution: Spleen (Z138 tumor-bearing mice; 3 h): 2.03 % ID/g | Biodistribution: Stomach (Z138 tumor-bearing mice; 3 h): 0.83 % ID/g | Biodistribution: Testes (Z138 tumor-bearing mice; 3 h): 3.53 % ID/g | Biodistribution: Z138 Tumor (Z138 tumor-bearing mice; 3 h): 9.81 % ID/g | Ratio Tumor-to-Blood (Z138 tumor-bearing mice; 3 h): 0.69 | Ratio Tumor-to-Bone (Z138 tumor-bearing mice; 3 h): 8.14 | Ratio Tumor-to-Kidney (Z138 tumor-bearing mice; 3 h): 2.52 | Ratio Tumor-to-Muscle (Z138 tumor-bearing mice; 3 h): 7.89 | Ratio Tumor-to-Pancreas (Z138 tumor-bearing mice; 3 h): 6.59
Compound: CC(C)NCCCC[C@H](NC(=O)[C@H]1CCC(=O)N[C@@H](CCCCNC(=O)[C@H](CCCCNC(=O)CCCc2ccc(I)cc2)NC(=O)[C@H](CS(=O)(=O)O)NC(=O)CN2CCN(CC(=O)O)CCN(CC(=O)O)CCN(CC(=O)O)CC2)C(=O)N[C@@H](Cc2ccc(O)cc2)C(=O)N[C@@H](CCCCNC(C)C)C(=O)N[C@H](CCCNC(=N)N)C(=O)N[C@@H](Cc2ccc3ccccc3c2)C(=O)N[C@H](C)C(=O)N1)C(N)=O [[^177Lu]Lu-BL34L11] [metal not drawn] (K(X1)Y[Lys(iPr)][dR][2Nal][dA][dE][Lys(iPr)]-NH2; lactam N-7)

IC50 (CXCR4 [4]): 10 to 50 nM
Compound: COc1ccc(CCCC(=O)NCCCC[C@H](NC(=O)[C@H](CS(=O)(=O)O)NC(=O)CN2CCN(CC(=O)O)CCN(CC(=O)O)CCN(CC(=O)O)CC2)C(=O)NCCCC[C@@H]2NC(=O)CC[C@H](C(=O)N[C@@H](CCCCNC(C)C)C(N)=O)NC(=O)[C@@H](C)NC(=O)[C@H](Cc3ccc4ccccc4c3)NC(=O)[C@@H](CCCNC(=N)N)NC(=O)[C@H](CCCCNC(C)C)NC(=O)[C@H](Cc3ccc(O)cc3)NC2=O)cc1 [BL34L7] (K(X6)Y[Lys(iPr)][dR][2Nal][dA][dE][Lys(iPr)]-NH2; lactam N-7)

tissue uptake at 1 h (in vivo; Biodistribution: Adrenals): 0.52 %ID/g | tissue uptake at 1 h (in vivo; Biodistribution: Blood): 1.73 %ID/g | tissue uptake at 1 h (in vivo; Biodistribution: Bone): 0.4 %ID/g | tissue uptake at 1 h (in vivo; Biodistribution: Brain): 0.04 %ID/g | tissue uptake at 1 h (in vivo; Biodistribution: Heart): 0.41 %ID/g | tissue uptake at 1 h (in vivo; Biodistribution: Kidneys): 2.45 %ID/g | tissue uptake at 1 h (in vivo; Biodistribution: Liver): 1.24 %ID/g | tissue uptake at 1 h (in vivo; Biodistribution: Lungs): 1.75 %ID/g | tissue uptake at 1 h (in vivo; Biodistribution: Muscle): 0.14 %ID/g | tissue uptake at 1 h (in vivo; Biodistribution: Pancreas): 0.23 %ID/g | tissue uptake at 1 h (in vivo; Biodistribution: Small Intestine): 0.34 %ID/g | tissue uptake at 1 h (in vivo; Biodistribution: Spleen): 0.59 %ID/g | tissue uptake at 1 h (in vivo; Biodistribution: Stomach): 0.09 %ID/g | tissue uptake at 1 h (in vivo; Biodistribution: Testes): 0.44 %ID/g | tissue uptake at 1 h (in vivo; Biodistribution: Z138 Tumor): 11.1 %ID/g | tissue to tissue ratio at 1 h (in vivo; Ratio Tumor-to-Blood): 6.5 | tissue to tissue ratio at 1 h (in vivo; Ratio Tumor-to-Bone): 37.2 | tissue to tissue ratio at 1 h (in vivo; Ratio Tumor-to-Kidney): 4.51 | tissue to tissue ratio at 1 h (in vivo; Ratio Tumor-to-Muscle): 87.1 | tissue to tissue ratio at 1 h (in vivo; Ratio Tumor-to-Pancreas): 9.07
Compound: COc1ccc(CCCC(=O)NCCCC[C@H](NC(=O)[C@H](CS(=O)(=O)O)NC(=O)CN2CCN(CC(=O)O)CCN(CC(=O)O)CCN(CC(=O)O)CC2)C(=O)NCCCC[C@@H]2NC(=O)CC[C@H](C(=O)N[C@@H](CCCCNC(C)C)C(N)=O)NC(=O)[C@@H](C)NC(=O)[C@H](Cc3ccc4ccccc4c3)NC(=O)[C@@H](CCCNC(=N)N)NC(=O)[C@H](CCCCNC(C)C)NC(=O)[C@H](Cc3ccc(O)cc3)NC2=O)cc1 [[^68Ga]Ga-BL34L7, metal not drawn] (K(X6)Y[Lys(iPr)][dR][2Nal][dA][dE][Lys(iPr)]-NH2; lactam N-7)
